Reference: ChEMBL document CHEMBL1201862, “PubChem BioAssay data set” (2004)
Active and inactive are the calls of the source. No stated cut-off is given here; in the data, actives have a measured IC50 and inactives only a lower limit.

How the values were obtained:
Format in all cases: functional
Caspase-3 = biological target: T1, Caspase-3 (Homo sapiens, UniProt P42574);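 further: Dose-response selectivity test against caspase-3 for candidate inhibitors of sentrin-specific proteases (SENPs)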
T1 sequence (P42574 whole entry): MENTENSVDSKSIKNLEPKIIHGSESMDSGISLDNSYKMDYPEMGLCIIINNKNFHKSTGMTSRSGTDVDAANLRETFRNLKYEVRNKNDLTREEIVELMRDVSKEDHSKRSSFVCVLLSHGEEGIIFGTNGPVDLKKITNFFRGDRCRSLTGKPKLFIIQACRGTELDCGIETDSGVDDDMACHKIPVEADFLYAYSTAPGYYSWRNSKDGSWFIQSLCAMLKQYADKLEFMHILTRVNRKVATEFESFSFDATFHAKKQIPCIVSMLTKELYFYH

[1] = biological target: T2, Sentrin-specific protease 6 (Homo sapiens, UniProt Q9GZR1);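 further: Luminescence-based dose-response confirmatory assay of SENP6 inhibition, following up an ultra-high-throughput screen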
T2 sequence (Q9GZR1 whole entry): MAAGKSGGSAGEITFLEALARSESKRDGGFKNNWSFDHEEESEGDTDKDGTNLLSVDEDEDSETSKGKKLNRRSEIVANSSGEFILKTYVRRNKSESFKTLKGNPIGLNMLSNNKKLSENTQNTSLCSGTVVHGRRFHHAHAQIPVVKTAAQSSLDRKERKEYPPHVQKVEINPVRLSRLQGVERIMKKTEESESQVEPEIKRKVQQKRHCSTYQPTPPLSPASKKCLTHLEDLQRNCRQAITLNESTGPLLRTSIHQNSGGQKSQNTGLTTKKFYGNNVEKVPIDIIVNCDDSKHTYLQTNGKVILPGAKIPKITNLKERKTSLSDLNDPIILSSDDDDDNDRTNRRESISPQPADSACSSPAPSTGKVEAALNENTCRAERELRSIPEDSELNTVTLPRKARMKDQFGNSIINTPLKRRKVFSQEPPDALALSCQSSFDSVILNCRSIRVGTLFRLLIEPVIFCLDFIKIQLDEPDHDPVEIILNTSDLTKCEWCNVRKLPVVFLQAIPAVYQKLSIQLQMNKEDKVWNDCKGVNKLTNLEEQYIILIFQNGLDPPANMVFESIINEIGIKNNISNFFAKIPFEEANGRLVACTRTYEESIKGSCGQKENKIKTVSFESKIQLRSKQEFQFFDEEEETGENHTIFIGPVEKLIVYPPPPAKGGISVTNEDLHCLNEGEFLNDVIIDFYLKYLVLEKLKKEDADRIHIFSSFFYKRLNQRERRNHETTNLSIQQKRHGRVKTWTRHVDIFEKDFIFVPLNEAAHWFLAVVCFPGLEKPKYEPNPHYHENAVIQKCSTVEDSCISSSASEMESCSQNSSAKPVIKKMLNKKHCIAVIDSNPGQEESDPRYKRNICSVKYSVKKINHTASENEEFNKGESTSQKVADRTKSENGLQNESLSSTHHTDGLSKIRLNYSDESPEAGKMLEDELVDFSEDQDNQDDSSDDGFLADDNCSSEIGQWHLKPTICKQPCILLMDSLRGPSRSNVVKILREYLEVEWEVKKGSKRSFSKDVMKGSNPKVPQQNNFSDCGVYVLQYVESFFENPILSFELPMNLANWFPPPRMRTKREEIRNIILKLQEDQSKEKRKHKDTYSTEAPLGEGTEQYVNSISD

[2] = biological target: T3, Apoptotic protease-activating factor 1 (Homo sapiens, UniProt O14727)
T3 sequence (O14727 whole entry): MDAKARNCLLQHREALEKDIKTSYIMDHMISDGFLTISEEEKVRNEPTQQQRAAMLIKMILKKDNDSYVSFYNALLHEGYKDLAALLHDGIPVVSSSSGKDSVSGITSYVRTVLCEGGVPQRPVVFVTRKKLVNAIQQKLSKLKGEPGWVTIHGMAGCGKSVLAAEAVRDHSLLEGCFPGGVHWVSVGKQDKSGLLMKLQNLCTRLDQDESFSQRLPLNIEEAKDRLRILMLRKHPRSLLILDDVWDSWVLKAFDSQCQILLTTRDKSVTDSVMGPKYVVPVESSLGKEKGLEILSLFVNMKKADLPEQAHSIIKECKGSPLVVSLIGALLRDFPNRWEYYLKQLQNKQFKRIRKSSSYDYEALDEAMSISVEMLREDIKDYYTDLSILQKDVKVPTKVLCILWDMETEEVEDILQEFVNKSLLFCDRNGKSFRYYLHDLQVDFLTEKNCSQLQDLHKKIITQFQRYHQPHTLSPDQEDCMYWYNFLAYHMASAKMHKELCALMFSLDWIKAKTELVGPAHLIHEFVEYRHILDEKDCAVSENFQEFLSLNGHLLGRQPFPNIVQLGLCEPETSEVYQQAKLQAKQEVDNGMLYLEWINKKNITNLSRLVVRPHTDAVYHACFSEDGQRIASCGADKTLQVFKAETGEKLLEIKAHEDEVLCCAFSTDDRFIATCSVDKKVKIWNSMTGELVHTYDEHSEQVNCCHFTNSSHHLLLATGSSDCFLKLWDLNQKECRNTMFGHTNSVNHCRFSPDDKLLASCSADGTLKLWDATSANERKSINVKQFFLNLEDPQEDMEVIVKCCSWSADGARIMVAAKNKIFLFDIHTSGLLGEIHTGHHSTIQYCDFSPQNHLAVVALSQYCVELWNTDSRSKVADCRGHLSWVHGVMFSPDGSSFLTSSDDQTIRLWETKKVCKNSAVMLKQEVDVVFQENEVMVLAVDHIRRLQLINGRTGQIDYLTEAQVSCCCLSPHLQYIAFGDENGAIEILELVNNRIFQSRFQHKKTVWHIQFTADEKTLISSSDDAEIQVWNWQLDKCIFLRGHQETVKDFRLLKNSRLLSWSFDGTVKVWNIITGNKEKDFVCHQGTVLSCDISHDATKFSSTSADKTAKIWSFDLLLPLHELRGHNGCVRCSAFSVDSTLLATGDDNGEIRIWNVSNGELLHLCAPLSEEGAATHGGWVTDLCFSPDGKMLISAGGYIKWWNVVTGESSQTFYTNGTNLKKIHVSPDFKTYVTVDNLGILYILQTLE

| Structure (SMILES) | IC50 (Caspase-3) | IC50 [1] | IC50 [2] |
| --- | --- | --- | --- |
| CC(C)N(C(=O)Nc1ccc2nsnc2c1)C(C)C | 5.81 µM (active) | 2.39 µM (active) | 6.61 µM (active) |
| CC(C)n1cnc2c(NCc3ccccc3)cc(OCC3CCN(C)CC3)cc21 | 7.82 µM (active) | 3.95 µM (active) | 6.63 µM (active) |
| NS(=O)(=O)c1ccc(NC2=CC(=O)C(=O)c3ccccc32)cc1 | 9.75 µM (active) | 2.89 µM (active) | 2.08 µM (active) |
